According to patent publication US20260356851A1, “TRICYCLIC COMPOUNDS AND USES THEREOF” (HUTCHMED LIMITED, priority 2023, published 2026):

Columns and labels:
Type in all cases: cell-based
[1] = target: T1, pERK1/2 (Thr202/Tyr204), NCI-1H441 (KRAS G12V) (Homo sapiens, UniProt P01116, G12V); test: Assay of intracellular pERK1/2 (Thr202/Tyr204) phosphorylation in NCI-H441 cells (KRAS G12V); conditions: pERK1/2, 2 days, read-out: NCI-H441 (KRAS G12V) IC50
T1 construct: pERK1/2 HTRF read-out
Protocol: (§1) Example 2: Assay of intracellular pERK1/2 (Thr202/Tyr204)phosphorylation
(§2) 1. Reagents and materials: • pERK1/2 (Thr202/Tyr2O4) HIRE kit, Cisbio, Cat #64ERKPEH; • OptiPlate™-384-well plate, PerkinElmer, Cat #6007299; • 96-well plate, Coming, Cat #353072; • Instrument: EnVision2104, PerkinElmer; • Cell lines: NCI-1H358 (KRAS G12C), ATCC, CRL-5807; PANC-1 (KRAS G121D), ATCC, CRL-1469; NCI-1H441 (KRAS G12V), ATCC, HTB-174.
(§3) 2. Preparation of Reaction Solutions
(§4) • A test compound was dissolved in DMSO, diluted to 200.0 μM and further diluted 3-fold to prepare a series of test compounds at concentrations of 66.7, 22.2, 7.4, 2.5, 0.82, 0.27, 0.09 μM etc. Then 10 μL of the compound at different dilution concentrations was added to 190 μL of a DMEM medium to prepare a 10× test compound; • 1× cell lysis buffer: 4× cell lysis stock solution (provided by the kit) was diluted 4-fold with deionized water, and then 10% 100× blocking stock solution (provided by the kit) was added thereto. • pERK1/2 detection solution (prepared just before use): the pERK1/2 d2 antibody (provided by the kit) and pERK1/2 Cryptate antibody (provided by the kit) were diluted with the detection solution (provided by the kit) at a ratio of 1:1:38.
(§5) • Cells were inoculated into a 96-well plate (100 μL/well) at a density of 10000-12000/well. No cell was inoculated into a negative control well, and only the cell medium was added at 100 μL/well. The plate was placed in a cell incubator at 5% CO2 and 37° C. overnight. • 10 μL of the 10× test compound was added to the 100 μL cell culture 96-well plate; both the positive control well (that is, the control hole without chemical compound treatment) and the negative control well were charged with 10 μL of a 5% DMSO culture solution; and the plate was cultured in a cell incubator at 5% CO2 and 37° C. for 2 days. • The medium in the 96-well plate was removed; 50 μL of the 1× cell lysis buffer was added to each of the wells; the plate was placed in a microplate shaker; and lysis under shaking was carried out at 900 rpm at room temperature for 1 hour. • 16 μL of the lysis buffer in the 96-well plate was taken and transferred to a 384-well plate, followed by centrifugation at 1000 rpm for 30 s; then 4 μL of pERK1/2 detection solution was added to each well, followed by centrifugation at 1000 rpm for 30 s; and the 384-well plate was sealed with a sealing membrane and incubated at 25° C. on a low-speed shaker at 100 rpm in the dark for 2 hours. • The fluorescence value (RFU) of each well was detected on EnVision2104, with an emission wavelength 1 being 665 nm and an emission wavelength 2 being 615 nm.
(§6) Fluorescence ratio=fluorescence value665 nm/fluorescence value615 nm
(§7) Inhibition rate (%)=100−((fluorescence ratio of compound well−fluorescence ratio of negative control well)/(fluorescence ratio of positive control well−fluorescence ratio of negative control well))×100
(§8) wherein: • the fluorescence ratio of compound well refers to the fluorescence ratio of the well containing the test compounds; • the fluorescence ratio of negative control well refers to the fluorescence ratio of the cell-free control well; • the fluorescence ratio of positive control well refers to the fluorescence ratio of the cell well treated with 0.5% DMSO.
(§9) IC50 value: obtained by calculation using XL-Fit 5.0 software.

[2] = target: T2, pERK1/2 (Thr202/Tyr204), PANC-1 (KRAS G121D) (Homo sapiens, UniProt P01116, G12D); test: Assay of intracellular pERK1/2 (Thr202/Tyr204) phosphorylation in PANC-1 cells (KRAS G12D); conditions: pERK1/2, 2 days, read-out: PANC-1 (KRAS G12D) IC50
T2 construct: pERK1/2 HTRF read-out
T2 sequence (P01116 1-188 isoform P01116-2 G12D): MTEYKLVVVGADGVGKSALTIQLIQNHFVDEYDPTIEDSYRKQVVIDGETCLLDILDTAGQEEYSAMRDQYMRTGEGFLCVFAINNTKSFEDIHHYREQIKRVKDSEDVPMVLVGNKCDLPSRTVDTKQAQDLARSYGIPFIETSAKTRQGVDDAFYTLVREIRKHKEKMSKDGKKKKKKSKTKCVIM
Protocol: as §1, §2, §3, §4, §5, §6, §7, §8, §9

[3] = target: T3, pERK1/2 (Thr202/Tyr204), NCI-1H358 (KRAS G12C) (Homo sapiens, UniProt P01116, G12C); test: Assay of intracellular pERK1/2 (Thr202/Tyr204) phosphorylation in NCI-H358 cells (KRAS G12C); conditions: pERK1/2, 2 days, read-out: NCI-H358 (KRAS G12C) IC50
T3 construct: pERK1/2 HTRF read-out
T3 sequence (P01116 1-188 isoform P01116-2 G12C): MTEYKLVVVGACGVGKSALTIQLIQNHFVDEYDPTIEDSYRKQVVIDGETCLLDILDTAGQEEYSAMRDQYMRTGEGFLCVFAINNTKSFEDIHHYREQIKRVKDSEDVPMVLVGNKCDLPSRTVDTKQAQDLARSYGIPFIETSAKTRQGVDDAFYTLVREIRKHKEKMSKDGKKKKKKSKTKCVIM
Protocol: as §1, §2, §3, §4, §5, §6, §7, §8, §9

T1 sequence (P01116 1-188 isoform P01116-2 G12V): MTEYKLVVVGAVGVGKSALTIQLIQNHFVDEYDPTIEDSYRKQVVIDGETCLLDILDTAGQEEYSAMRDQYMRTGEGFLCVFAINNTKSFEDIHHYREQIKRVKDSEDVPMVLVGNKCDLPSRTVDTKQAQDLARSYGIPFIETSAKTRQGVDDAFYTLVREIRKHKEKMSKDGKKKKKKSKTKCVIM

IC50 [1]	IC50 [2]	IC50 [3]	Compound
11 nM	290 nM	3 nM	CC(c1cccnc1N)N1CCOc2nc(-c3cc(O)cc(F)c3C3CC3)c(F)c3nc(OC[C@@H]4CCN4CC(F)F)nc1c23 (single isomer, unassigned) [Compound 24, 3-(10-((R or S)-1-(2-aminopyridin-3-yl)ethyl)-2-(((S)-1-(2,2-difluoroethyl)azetidin-2-yl)methoxy)-4-fluoro-9,10-dihydro-8H-7-oxa-1,3,6,10-tetraazacyclohepta[de]naphthalen-5-yl)-4-cyclopropyl-5-fluorophenol]
> 1000 nM	> 1000 nM	> 1000 nM	CC(c1cccnc1N)N1CCOc2nc(-c3cc(O)cc4ccc(F)c(F)c34)c(F)c3ncnc1c23 (single isomer, unassigned) [Compound 29, (R or S)-4-(10-(1-(2-aminopyridin-3-yl)ethyl)-4-fluoro-9,10-dihydro-8H-7-oxa-1,3,6,10-tetraazacyclohepta[de]naphthalen-5-yl)-5,6-difluoronaphthalen-2-ol]
> 1000 nM	> 1000 nM	> 1000 nM	CC(c1cccnc1N)N1CCOc2nc(-c3cc(O)cc(F)c3C3CC3)c(F)c3nc(OC[C@@H]4CCCN4C)nc1c23 (single isomer, unassigned) [Compound 34, 3-(10-((R or S)-1-(2-aminopyridin-3-yl)ethyl)-4-fluoro-2-(((S)-1-methylpyrrolidin-2-yl)methoxy)-9,10-dihydro-8H-7-oxa-1,3,6,10-tetraazacyclohepta[de]naphthalen-5-yl)-4-cyclopropyl-5-fluorophenol]
–	–	> 100 nM	Cc1ccc(C(C)N2CCOc3nc(-c4cc(N)c(F)c(C)c4C(F)(F)F)c(F)c4nc(OC[C@@]56CCCN5C[C@H](F)C6)nc2c34)c(N)n1 (single isomer, unassigned) [Compound 252, 3-((R or S)-1-(5-(5-amino-4-fluoro-3-methyl-2-(trifluoromethyl)phenyl)-4-fluoro-2-(((2R,7aS)-2-fluorotetrahydro-1H-pyrrolizin-7a(5H)-yl)methoxy)-8,9-dihydro-10H-7-oxa-1,3,6,10-tetraazacyclohepta[de]naphthalen-10-yl)ethyl)-6-methylpyridin-2-amine]

More lines, now with the values behind:

Compound	IC50 [1]	IC50 [2]	IC50 [3]
C[C@H](c1cccnc1N)N1CCOc2nc(-c3cc(O)cc(Cl)c3C3CC3)c(F)c3nc(OC[C@@H]4CCN4CC(F)F)nc1c23 (single isomer, unassigned) [Compound 20, 3-(10-((R or S)-1-(2-aminopyridin-3-yl)ethyl)-2-(((S)-1-(2,2-difluoroethyl)azetidin-2-yl)methoxy)-4-fluoro-9,10-dihydro-8H-7-oxa-1,3,6,10-tetraazacyclohepta[de]naphthalen-5-yl)-5-chloro-4-cyclopropylphenol]	> 1000 nM	> 1000 nM	783 nM
CC(c1cccnc1N)N1CCOc2nc(-c3cc(O)cc(Cl)c3C3CC3)c(F)c3nc(OC[C@@H]4CCN4CC(F)F)nc1c23 (single isomer, unassigned) [Compound 21, 3-(10-((R or S)-1-(2-aminopyridin-3-yl)ethyl)-2-(((S)-1-(2,2-difluoroethyl)azetidin-2-yl)methoxy)-4-fluoro-9,10-dihydro-8H-7-oxa-1,3,6,10-tetraazacyclohepta[de]naphthalen-5-yl)-5-chloro-4-cyclopropylphenol]	3 nM	82 nM	0.5 nM
CC(c1cccnc1N)N1CCOc2nc(-c3cc(O)cc(F)c3C3CC3)c(F)c3nc(OC[C@@H]4CCN4CC(F)F)nc1c23 (single isomer, unassigned) [Compound 23, 3-(10-((R or S)-1-(2-aminopyridin-3-yl)ethyl)-2-(((S)-1-(2,2-difluoroethyl)azetidin-2-yl)methoxy)-4-fluoro-9,10-dihydro-8H-7-oxa-1,3,6,10-tetraazacyclohepta[de]naphthalen-5-yl)-4-cyclopropyl-5-fluorophenol]	> 1000 nM	> 1000 nM	> 1000 nM
C[C@H](c1cccnc1N)N1CCOc2nc(-c3c(C(F)(F)F)ccc4[nH]ncc34)c(F)c3nc(OC[C@@]45CCCN4C[C@H](F)C5)nc1c23 (single isomer, unassigned) [Compound 26, 3-((1R or 1S)-1-(4-fluoro-2-(((2R,7aS)-2-fluorotetrahydro-1H-pyrrolizin-7a(5H)-yl)methoxy)-5-(5-(trifluoromethyl)-1H-indazol-4-yl)-8,9-dihydro-10H-7-oxa-1,3,6,10-tetraazacyclohepta[de]naphthalen-10-yl)ethyl)pyridin-2-amine]	> 1000 nM	> 1000 nM	886 nM
C[C@@H](c1cccnc1N)N1CCOc2nc(-c3c(C(F)(F)F)ccc4[nH]ncc34)c(F)c3nc(OC[C@@]45CCCN4C[C@H](F)C5)nc1c23 (single isomer, unassigned) [Compound 27, 3-((1R or 1S)-1-(4-fluoro-2-(((2R,7aS)-2-fluorotetrahydro-1H-pyrrolizin-7a(5H)-yl)methoxy)-5-(5-(trifluoromethyl)-1H-indazol-4-yl)-8,9-dihydro-10H-7-oxa-1,3,6,10-tetraazacyclohepta[de]naphthalen-10-yl)ethyl)pyridin-2-amine]	11 nM	106 nM	2 nM
CC(c1cccnc1N)N1CCOc2nc(-c3cc(O)cc4ccc(F)c(F)c34)c(F)c3ncnc1c23 (single isomer, unassigned) [Compound 30, (R or S)-4-(10-(1-(2-aminopyridin-3-yl)ethyl)-4-fluoro-9,10-dihydro-8H-7-oxa-1,3,6,10-tetraazacyclohepta[de]naphthalen-5-yl)-5,6-difluoronaphthalen-2-ol]	64 nM	> 1000 nM	31 nM
CC(c1cccnc1N)N1CCOc2nc(-c3cc(O)cc(Cl)c3C3CC3)c(F)c3nc(OC[C@@H]4CCCN4C)nc1c23 (single isomer, unassigned) [Compound 31, 3-(10-((R or S)-1-(2-aminopyridin-3-yl)ethyl)-4-fluoro-2-(((S)-1-methylpyrrolidin-2-yl)methoxy)-9,10-dihydro-8H-7-oxa-1,3,6,10-tetraazacyclohepta[de]naphthalen-5-yl)-5-chloro-4-cyclopropylphenol]	> 1000 nM	> 1000 nM	405 nM
CC(c1cccnc1N)N1CCOc2nc(-c3cc(O)cc(Cl)c3C3CC3)c(F)c3nc(OC[C@@H]4CCCN4C)nc1c23 (single isomer, unassigned) [Compound 32, 3-(10-((R or S)-1-(2-aminopyridin-3-yl)ethyl)-4-fluoro-2-(((S)-1-methylpyrrolidin-2-yl)methoxy)-9,10-dihydro-8H-7-oxa-1,3,6,10-tetraazacyclohepta[de]naphthalen-5-yl)-5-chloro-4-cyclopropylphenol]	6 nM	50 nM	3 nM
Cc1cc(N)cc(-c2nc3c4c(nc(OC[C@@]56CCCN5C[C@H](F)C6)nc4c2F)N(C(C)c2cccnn2)CCO3)c1C(F)(F)F (single isomer, unassigned) [Compound 128, 3-(4-fluoro-2-(((2R,7aS)-2-fluorotetrahydro-1H-pyrrolizin-7a(5H)-yl)methoxy)-10-((R or S)-1-(pyridazin-3-yl)ethyl)-9,10-dihydro-8H-7-oxa-1,3,6,10-tetraazacyclohepta[de]naphthalen-5-yl)-5-methyl-4-(trifluoromethyl)aniline]	–	–	> 100 nM
